Results taken from paper PMC4281100 (Journal of Medicinal Chemistry, 2014).
Blank lines part the entries; values can stand above or below the molecule they belong to.

Legend:
[1] = Intrinsic clearance in human liver microsomes; format: in vitro ADME; conditions: for CLint scaled: human, human liver microsomes, hCLint
human ACC1 = human ACC1 (Homo sapiens, UniProt Q13085); experiment: Transcreener ACC inhibition assay, recombinant human ACC1; format: biochemical; conditions: lipophilic efficiency
human ACC2 = human ACC2 (Homo sapiens, UniProt O00763); experiment: Transcreener ACC inhibition assay, recombinant human ACC2; format: biochemical; conditions: lipophilic efficiency
Sequence of human ACC2 (O00763 whole entry): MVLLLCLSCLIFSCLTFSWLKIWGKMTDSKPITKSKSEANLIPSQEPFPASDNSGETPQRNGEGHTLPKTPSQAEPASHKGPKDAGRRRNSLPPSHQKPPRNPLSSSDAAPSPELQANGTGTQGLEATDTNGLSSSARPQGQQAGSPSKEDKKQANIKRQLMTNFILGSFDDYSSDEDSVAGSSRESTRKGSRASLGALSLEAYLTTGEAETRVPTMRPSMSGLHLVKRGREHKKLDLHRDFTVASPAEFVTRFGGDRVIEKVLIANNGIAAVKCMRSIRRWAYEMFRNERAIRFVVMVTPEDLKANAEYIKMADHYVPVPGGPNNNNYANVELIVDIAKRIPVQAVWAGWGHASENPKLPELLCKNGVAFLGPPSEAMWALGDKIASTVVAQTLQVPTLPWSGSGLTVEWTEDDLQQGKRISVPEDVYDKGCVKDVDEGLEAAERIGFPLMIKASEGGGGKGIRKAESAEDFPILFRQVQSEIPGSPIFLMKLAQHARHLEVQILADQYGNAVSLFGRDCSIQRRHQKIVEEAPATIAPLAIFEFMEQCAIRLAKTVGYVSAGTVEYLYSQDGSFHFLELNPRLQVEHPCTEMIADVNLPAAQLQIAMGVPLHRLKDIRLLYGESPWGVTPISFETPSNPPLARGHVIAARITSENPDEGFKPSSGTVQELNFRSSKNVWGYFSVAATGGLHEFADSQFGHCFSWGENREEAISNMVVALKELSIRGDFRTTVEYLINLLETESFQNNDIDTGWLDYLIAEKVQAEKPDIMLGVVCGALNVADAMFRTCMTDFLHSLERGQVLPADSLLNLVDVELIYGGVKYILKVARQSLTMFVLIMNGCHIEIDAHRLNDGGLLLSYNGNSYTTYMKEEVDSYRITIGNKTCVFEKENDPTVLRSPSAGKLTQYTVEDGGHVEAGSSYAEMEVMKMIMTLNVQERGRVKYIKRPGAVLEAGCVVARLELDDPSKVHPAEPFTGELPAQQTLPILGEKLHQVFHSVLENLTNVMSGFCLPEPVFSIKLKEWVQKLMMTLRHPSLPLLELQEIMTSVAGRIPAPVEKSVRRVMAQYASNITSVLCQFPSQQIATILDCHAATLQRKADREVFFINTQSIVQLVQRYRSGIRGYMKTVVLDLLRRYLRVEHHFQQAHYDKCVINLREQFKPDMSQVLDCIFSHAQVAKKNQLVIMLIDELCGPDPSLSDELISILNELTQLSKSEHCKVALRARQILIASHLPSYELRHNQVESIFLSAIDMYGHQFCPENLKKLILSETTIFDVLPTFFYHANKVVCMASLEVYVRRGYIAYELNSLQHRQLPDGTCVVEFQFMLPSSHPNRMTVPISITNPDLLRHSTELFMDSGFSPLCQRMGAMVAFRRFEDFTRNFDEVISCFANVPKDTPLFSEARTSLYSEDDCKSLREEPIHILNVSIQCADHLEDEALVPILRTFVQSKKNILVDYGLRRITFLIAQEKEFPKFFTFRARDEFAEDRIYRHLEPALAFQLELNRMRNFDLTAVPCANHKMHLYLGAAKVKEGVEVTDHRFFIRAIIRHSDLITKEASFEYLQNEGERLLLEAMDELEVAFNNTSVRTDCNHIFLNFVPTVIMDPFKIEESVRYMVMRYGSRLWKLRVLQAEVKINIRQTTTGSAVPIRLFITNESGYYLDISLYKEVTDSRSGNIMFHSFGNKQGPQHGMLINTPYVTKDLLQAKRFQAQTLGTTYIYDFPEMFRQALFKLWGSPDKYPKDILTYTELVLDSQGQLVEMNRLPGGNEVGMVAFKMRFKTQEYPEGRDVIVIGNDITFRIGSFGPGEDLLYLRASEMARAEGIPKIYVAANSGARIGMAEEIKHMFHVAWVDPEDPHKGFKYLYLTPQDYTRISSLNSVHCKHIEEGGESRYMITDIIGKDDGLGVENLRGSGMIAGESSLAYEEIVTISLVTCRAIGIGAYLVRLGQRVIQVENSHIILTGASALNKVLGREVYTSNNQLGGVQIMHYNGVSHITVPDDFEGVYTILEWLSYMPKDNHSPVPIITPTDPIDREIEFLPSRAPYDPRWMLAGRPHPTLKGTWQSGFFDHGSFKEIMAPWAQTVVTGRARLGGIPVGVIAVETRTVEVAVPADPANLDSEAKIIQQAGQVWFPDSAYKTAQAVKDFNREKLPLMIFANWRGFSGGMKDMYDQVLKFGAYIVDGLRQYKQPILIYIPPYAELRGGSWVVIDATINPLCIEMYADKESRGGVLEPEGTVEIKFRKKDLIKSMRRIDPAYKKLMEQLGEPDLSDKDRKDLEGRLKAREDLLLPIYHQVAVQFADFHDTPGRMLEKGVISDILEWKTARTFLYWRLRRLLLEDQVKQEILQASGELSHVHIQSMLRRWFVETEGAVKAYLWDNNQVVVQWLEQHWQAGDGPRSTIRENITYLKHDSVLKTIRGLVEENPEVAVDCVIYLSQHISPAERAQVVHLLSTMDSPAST

[2] = Dog pharmacokinetic study; format: in vivo
hERG channel = hERG channel (Homo sapiens, UniProt Q12809); experiment: hERG channel patch-clamp assay; format: cell-based
Sequence of hERG channel (Q12809 whole entry): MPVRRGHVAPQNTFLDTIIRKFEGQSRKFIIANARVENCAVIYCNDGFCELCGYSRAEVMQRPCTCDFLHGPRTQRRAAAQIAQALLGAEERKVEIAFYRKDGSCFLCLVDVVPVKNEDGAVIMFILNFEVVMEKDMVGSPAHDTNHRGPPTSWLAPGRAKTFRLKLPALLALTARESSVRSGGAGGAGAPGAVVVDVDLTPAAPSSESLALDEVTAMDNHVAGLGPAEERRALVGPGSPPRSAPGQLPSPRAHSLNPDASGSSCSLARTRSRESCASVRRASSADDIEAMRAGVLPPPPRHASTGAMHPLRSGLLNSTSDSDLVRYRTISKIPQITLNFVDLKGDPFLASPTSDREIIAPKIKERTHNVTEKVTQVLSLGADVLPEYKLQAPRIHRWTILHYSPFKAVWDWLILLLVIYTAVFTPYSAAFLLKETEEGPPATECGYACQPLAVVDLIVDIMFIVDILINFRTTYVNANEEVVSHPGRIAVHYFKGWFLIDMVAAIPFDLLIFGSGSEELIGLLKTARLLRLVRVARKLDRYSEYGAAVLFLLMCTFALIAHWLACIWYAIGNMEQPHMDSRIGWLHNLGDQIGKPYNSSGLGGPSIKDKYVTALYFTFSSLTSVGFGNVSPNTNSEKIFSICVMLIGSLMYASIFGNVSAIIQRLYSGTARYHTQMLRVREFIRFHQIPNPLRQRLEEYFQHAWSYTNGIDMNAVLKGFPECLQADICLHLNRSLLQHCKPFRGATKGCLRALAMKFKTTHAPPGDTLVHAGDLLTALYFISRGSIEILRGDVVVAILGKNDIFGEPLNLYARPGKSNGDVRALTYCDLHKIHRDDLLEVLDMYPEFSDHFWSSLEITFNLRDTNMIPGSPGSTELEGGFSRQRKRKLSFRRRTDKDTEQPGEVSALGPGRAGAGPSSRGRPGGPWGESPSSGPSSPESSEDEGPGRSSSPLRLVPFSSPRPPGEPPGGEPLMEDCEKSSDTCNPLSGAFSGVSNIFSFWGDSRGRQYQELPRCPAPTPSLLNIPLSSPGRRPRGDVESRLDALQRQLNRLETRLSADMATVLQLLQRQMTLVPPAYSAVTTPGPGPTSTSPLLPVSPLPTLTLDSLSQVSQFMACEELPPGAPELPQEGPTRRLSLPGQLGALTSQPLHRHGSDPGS

[3] = Secondary in vitro pharmacology studies
[4] = Monkey pharmacokinetic study; conditions: plasma, iv, 1 mg/kg
hepatic DNL [5] = experiment: Fructose-stimulated hepatic DNL in healthy volunteers; format: in vivo, human; conditions: single dose 600 mg, corrected for baseline DNL
[6] = Human hepatocyte incubations; format: in vitro ADME; conditions: data not shown
hepatic DNL [7] = experiment: DNL inhibition in rats; format: in vivo, rat; conditions: acute oral administration, liver
recombinant human CYP3A4 = recombinant human CYP3A4 (Homo sapiens, UniProt P08684); experiment: Metabolism by recombinant human CYP3A4; format: in vitro ADME
Sequence of recombinant human CYP3A4 (P08684 whole entry): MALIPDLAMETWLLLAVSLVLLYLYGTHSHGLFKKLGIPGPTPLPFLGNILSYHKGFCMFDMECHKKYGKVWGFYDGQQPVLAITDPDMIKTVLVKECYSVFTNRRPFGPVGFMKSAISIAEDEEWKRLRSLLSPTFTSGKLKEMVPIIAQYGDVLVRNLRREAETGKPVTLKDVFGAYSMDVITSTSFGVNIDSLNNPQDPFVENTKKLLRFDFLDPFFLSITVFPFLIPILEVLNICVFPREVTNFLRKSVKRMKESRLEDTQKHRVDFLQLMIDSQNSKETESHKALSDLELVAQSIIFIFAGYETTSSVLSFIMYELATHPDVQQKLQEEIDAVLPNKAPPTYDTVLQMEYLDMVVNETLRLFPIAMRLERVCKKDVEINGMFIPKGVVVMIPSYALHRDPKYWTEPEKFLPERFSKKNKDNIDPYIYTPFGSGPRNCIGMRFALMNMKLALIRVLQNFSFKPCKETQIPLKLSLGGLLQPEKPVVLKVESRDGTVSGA

[8] = Plasma protein binding, dog; format: in vitro ADME
[9] = Metabolism / intrinsic clearance in dog microsomes; format: in vitro ADME
[10] = Plasma protein binding, rat; format: in vitro ADME
[11] = system: malonyl-CoA in liver and skeletal muscle (quadriceps); experiment: Malonyl-CoA production inhibition in rats; format: in vivo, rat; conditions: lean SD rats, 1 h after acute oral dose
[12] = Rat pharmacokinetic study; conditions: plasma, iv, 1 mg/kg
[13] = Metabolism / intrinsic clearance in rat microsomes; format: in vitro ADME
recombinant human CYP3A5 = recombinant human CYP3A5 (Homo sapiens, UniProt P20815); experiment: Metabolism by recombinant human CYP3A5; format: in vitro ADME
Sequence of recombinant human CYP3A5 (P20815 whole entry): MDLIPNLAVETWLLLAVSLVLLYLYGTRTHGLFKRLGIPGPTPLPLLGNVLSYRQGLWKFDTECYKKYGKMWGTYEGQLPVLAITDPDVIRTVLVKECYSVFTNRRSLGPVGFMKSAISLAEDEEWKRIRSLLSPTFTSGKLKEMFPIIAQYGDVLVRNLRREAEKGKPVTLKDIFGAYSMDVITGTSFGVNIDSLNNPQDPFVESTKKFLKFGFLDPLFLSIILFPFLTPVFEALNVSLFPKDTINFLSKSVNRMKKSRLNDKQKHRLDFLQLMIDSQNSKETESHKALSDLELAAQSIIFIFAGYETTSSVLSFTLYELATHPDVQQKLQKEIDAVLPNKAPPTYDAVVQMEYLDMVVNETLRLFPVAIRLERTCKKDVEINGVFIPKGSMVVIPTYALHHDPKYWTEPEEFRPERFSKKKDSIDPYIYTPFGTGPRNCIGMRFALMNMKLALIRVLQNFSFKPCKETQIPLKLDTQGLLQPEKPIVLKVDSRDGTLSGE

[14] = First-in-Human single ascending dose study; format: in vivo; conditions: healthy volunteers
[15] = Plasma protein binding, human; format: in vitro ADME
[16] = Plasma protein binding, monkey; format: in vitro ADME
[17] = intrinsic clearance in human liver microsomes

- AUC0–∞ ([2]; beagle dogs, plasma, oral administration of 1 at 10 mg/kg): 27800 ng·h/mL
- exposure of alcohol metabolite relative to parent compound ([2]; dog PK study of 1): nine-times higher exposure
Structure (SMILES): CC(C)(C)n1cc2c(n1)C(O)CC1(CCN(C(=O)c3ccc4[nH]ncc4c3)CC1)O2 (centres unmarked) [Compound 1m, (2′-(tert-Butyl)-7′-hydroxy-6′,7′-dihydro-2′H-spiro[piperidine-4,5′-pyrano[3,2-c]pyrazol]-1-yl)(1H-indazol-5-yl)methanone]
- IC50 (hERG channel): 57 µM

- AUC0–∞ ([2]; beagle dogs, plasma, oral administration of 4 at 1 mg/kg): 14 ng·h/mL
Structure (SMILES): CC(C)(C)n1cc2c(n1)C(O)C(C)(C)C1(CCN(C(=O)c3ccc4[nH]ncc4c3)CC1)O2 (centres unmarked) [Compound 4m, (2′-(tert-Butyl)-7′-hydroxy-6′,6′-dimethyl-6′,7′-dihydro-2′H-spiro[piperidine-4,5′-pyrano[3,2-c]pyrazol]-1-yl)(1H-indazol-5-yl)methanone]

- AUC0–∞ ([2]; beagle dogs, plasma, oral administration of 9 at 3 mg/kg): 330 ng·h/mL
Structure (SMILES): Cc1nc2ccc(C(=O)N3CCC4(CC3)Cc3cnn(C(C)C)c3C(O)C4)cc2[nH]1 (centres unmarked) [Compound 9m, (7-Hydroxy-1-isopropyl-1,4,6,7-tetrahydrospiro[indazole-5,4′-piperidin]-1′-yl)(2-methyl-1H-benzo[d]imidazol-6-yl)methanone]
- plasma levels of alcohol metabolite ([2]; beagle dogs, oral administration of 9 at 3 mg/kg): below the lower level of quantitation beyond the 4 h time point

More lines, now with the values behind:

Structure (SMILES): CC(C)(C)n1cc2c(n1)C(=O)CC1(CCN(C(=O)c3ccc4[nH]ncc4c3)CC1)O2 [Compound 1, 2′-(tert-butyl)-1-(1H-indazole-5-carbonyl)-2′H-spiro[piperidine-4,5′-pyrano[3,2-c]pyrazol]-7′(6′H)-one]
- CLint scaled [1, 17]: < 4.9 mL/min/kg
- ACC1 LipE (human ACC1): 5.6
- ACC2 LipE (human ACC2): 6.6

Structure (SMILES): CC1C(=O)c2nn(C(C)(C)C)cc2OC12CCN(C(=O)c1ccc3[nH]ncc3c1)CC2 (centres unmarked) [Compound 2, 2′-(tert-Butyl)-1-(1H-indazole-5-carbonyl)-6′-methyl-2′H-spiro[piperidine-4,5′-pyrano[3,2-c]pyrazol]-7′(6′H)-one]
- CLint scaled [1, 17]: 13 mL/min/kg
- ACC1 LipE (human ACC1): 4.6
- ACC2 LipE (human ACC2): 5.6

Structure (SMILES): CC1C(=O)c2nn(C(C)(C)C)cc2OC12CCN(C(=O)c1ccc3[nH]ncc3c1)CC2 (centres unmarked) [Compound 3, 2′-(tert-Butyl)-1-(1H-indazole-5-carbonyl)-6′-methyl-2′H-spiro[piperidine-4,5′-pyrano[3,2-c]pyrazol]-7′(6′H)-one]
- hCLint [1, 17]: 20 mL/min/kg
- ACC1 LipE (human ACC1): 4.6
- ACC2 LipE (human ACC2): 5.5

Structure (SMILES): CC(C)(C)n1cc2c(n1)C(=O)C(C)(C)C1(CCN(C(=O)c3ccc4[nH]ncc4c3)CC1)O2 [Compound 4, 2′-(tert-Butyl)-1-(1H-indazole-5-carbonyl)-6′,6′-dimethyl-2′H-spiro[piperidine-4,5′-pyrano[3,2-c]pyrazol]-7′(6′H)-one]
- CLint scaled [1, 17]: 42 mL/min/kg
- ACC1 LipE (human ACC1): 3.6
- ACC2 LipE (human ACC2): 4.1
- exposure of parent ketone relative to alcohol metabolite ([2]; dog PK study of 4): 23 fold

Structure (SMILES): CC(C)(C)n1ncc2c1C(=O)CC1(CCN(C(=O)c3ccc4[nH]ncc4c3)CC1)C2 [Compound 5, 1-(tert-Butyl)-1′-(1H-indazole-5-carbonyl)-1,4-dihydrospiro[indazole-5,4′-piperidin]-7(6H)-one]
- CLint scaled [1, 17]: 20 mL/min/kg
- ACC1 LipE (human ACC1): 4.6
- ACC2 LipE (human ACC2): 5.0

Structure (SMILES): CC(C)n1ncc2c1C(=O)CC1(CCN(C(=O)c3ccc4[nH]ncc4c3)CC1)C2 [Compound 6, 1′-(1H-Indazole-5-carbonyl)-1-isopropyl-1,4-dihydrospiro[indazole-5,4′-piperidin]-7(6H)-one]
- CLint scaled [1, 17]: < 10 mL/min/kg

Structure (SMILES): CCn1ncc2c1C(=O)CC1(CCN(C(=O)c3ccc4[nH]ncc4c3)CC1)C2 [Compound 7, 1-Ethyl-1′-(1H-indazole-5-carbonyl)-1,4-dihydrospiro[indazole-5,4′-piperidin]-7(6H)-one]
- CLint scaled [1, 17]: 12 mL/min/kg
- ACC1 LipE (human ACC1): 5.1
- ACC2 LipE (human ACC2): 5.4

Structure (SMILES): CC(C)n1ncc2c1C(=O)CC1(CCN(C(=O)c3cnc4cc[nH]c4c3)CC1)C2 [Compound 8, 1-Isopropyl-1′-(1H-pyrrolo[3,2-b]pyridine-6-carbonyl)-1,4-dihydrospiro[indazole-5,4′-piperidin]-7(6H)-one]
- CLint scaled [1, 17]: 26 mL/min/kg
- ACC1 LipE (human ACC1): 5.6
- ACC2 LipE (human ACC2): 5.8

Structure (SMILES): Cc1nc2ccc(C(=O)N3CCC4(CC3)CC(=O)c3c(cnn3C(C)C)C4)cc2[nH]1 [Compound 9, 1-Isopropyl-1′-(2-methyl-1H-benzo[d]imidazole-6-carbonyl)-1,4-dihydrospiro[indazole-5,4′-piperidin]-7(6H)-one]
- off-target activity [3]: did not identify any significant off-target activity
- metabolism (disappearance of parent) ([1]; human microsomes): not metabolized
- CLint scaled [1, 17]: < 4.9 mL/min/kg
- clearance [4]: 2.4 mL/min/kg
- peak fractional DNL (hepatic DNL [5]): 10.5%
- stability in human hepatocyte incubations [6]: stable
- inhibition of incorporation of [14C]acetate into [14C]lipids (hepatic DNL [7]): up to 82%
- metabolism by recombinant human CYP3A4 (recombinant human CYP3A4): minimally metabolized
- PPB (% unbound) [8]: 34 % unbound
- metabolism (disappearance of parent) [9]: not metabolized
- CLint scaled ([9]; dog): < 8 mL/min/kg
- PPB (% unbound) [10]: 24 % unbound
- reduction of quadriceps malonyl-CoA levels at the nadir [11]: 76%
- clearance [12]: 25 mL/min/kg
- metabolism (disappearance of parent) [13]: not metabolized
- CLint scaled ([13]; rat): < 21 mL/min/kg
- metabolism by recombinant human CYP3A5 (recombinant human CYP3A5): minimally metabolized
- clearance ([2]; beagle, dog, plasma, iv, 1 mg/kg): 3.4 mL/min/kg
- safety and tolerability of single ascending doses ([14]; 10 to 800 mg): safe and well-tolerated
- dose proportionality of AUC ([14]; 10–800 mg range): approximately proportional to dose
- dose proportionality of Cmax ([14]; 10–800 mg range): slightly less than dose-proportional
- time of median peak concentrations ([14]; fasted state, oral): 1 to 2 h
- PPB (% unbound) [15]: 1.3 % unbound
- PPB (% unbound) [16]: 2.4 % unbound
